The C3SDB collision cross section collection
Where “and” joins values, the source holds several entries; their conditions need not be identical. Equal values may be shown once. Blank lines part the entries; values can stand above or below the compound they belong to.

Key:
[1] = instrument: DT, stepped-field
[2] = instrument: TW, calibrated with phosphatidylcholines (ESI+) and phosphatidylethanolamines (ESI-)
[3] = instrument: DT, single field, calibrated with Agilent tune mix (Agilent)
[4] = instrument: DT, stepped-field; remark: listed apart in the source
[5] = instrument: DT, stepped-field; remark: listed apart in the source
[6] = instrument: DT, single field, calibrated with Agilent tune mix (Agilent); remark: listed apart in the source
[7] = instrument: TW, calibrated with phosphatidylcholines (ESI+) and phosphatidylethanolamines (ESI-); remark: listed apart in the source
[8] = instrument: DT, single field
[9] = [M+Na]+; instrument: DT; stepped-field

SMILES: CN1c2c(nc(N)[nH]c2=O)NCC1CNc1ccc(C(=O)N[C@H](CCC(=O)O)C(=O)O)cc1 (stereo partly drawn) [5-Methyl-THF]
collision cross section (N2) ([1]; [M+H]+): 197.52 Å²
collision cross section (N2) ([1]; [M-H]-): 200.57 Å²

SMILES: CC[C@H](C)[C@H](NC(=O)[C@H](Cc1ccc(O)cc1)NC(=O)[C@@H](NC(=O)[C@H](CCCN=C(N)N)NC(=O)[C@@H](N)CC(=O)O)C(C)C)C(=O)N[C@@H](Cc1cnc[nH]1)C(=O)N1CCC[C@H]1C(=O)N[C@@H](Cc1ccccc1)C(=O)N[C@@H](Cc1cnc[nH]1)C(=O)N[C@@H](CC(C)C)C(=O)O [Angiotensin I]
collision cross section (N2) ([1]; [M+2H]2+): 387.3 Å²
collision cross section (N2) ([1]; [M+3H]3+): 474.71 Å²
collision cross section (N2) ([1]; [M+4H]4+): 549.24 Å²
collision cross section (N2) ([1]; [M+H]+): 357.31 Å²

SMILES: CCCCC/C=C\C/C=C\C/C=C\C/C=C\CCCC(=O)O [Arachidonic acid]
collision cross section (N2) ([1]; [M-H]-): 183.66 Å²

SMILES: NC(N)=NCCC[C@H](NC(=O)[C@H](Cc1ccccc1)NC(=O)[C@@H]1CCCN1C(=O)[C@H](CO)NC(=O)[C@H](Cc1ccccc1)NC(=O)CNC(=O)[C@@H]1CCCN1C(=O)[C@@H]1CCCN1C(=O)[C@@H](N)CCCN=C(N)N)C(=O)O [Bradykinin]
collision cross section (N2) ([1]; [M+2H]2+): 343.33 Å²
collision cross section (N2) ([1]; [M+3H]3+): 447.61 Å²
collision cross section (N2) ([1]; [M+H]+): 315.25 Å²

SMILES: N[C@@H](CSSC[C@H](N)C(=O)O)C(=O)O [L-Cystine]
collision cross section (N2) ([3]; [M+H]+): 149.4 Å²
collision cross section (N2) ([1]; [M+H]+): 150.08 Å²
collision cross section (N2) ([1]; [M+Na]+): 151.81 Å²
collision cross section (N2) ([1]; [M-H]-): 144.39 Å²

SMILES: N[C@@H](CCC(=O)O)C(=O)O [L-Glutamate]
collision cross section (N2) ([1]; [M-H]-): 125.65 Å²

SMILES: N[C@@H](Cc1cnc[nH]1)C(=O)O [L-Histidine]
collision cross section (N2) ([3]; [M+H]+): 131.9 Å²
collision cross section (N2) ([1]; [M+H]+): 132.74 Å²
collision cross section (N2) ([1]; [M+Na]+): 135.48 Å²
collision cross section (N2) ([1]; [M-H]-): 130.01 Å²
collision cross section (N2) ([4]; [M+H]+): 132.41 Å²

SMILES: CC(C)C[C@H](N)C(=O)O [L-Leucine]
collision cross section (N2) ([1]; [M+H]+): 135.56 Å²
collision cross section (N2) ([1]; [M-H]-): 132.51 Å²
collision cross section (N2) ([4]; [M+H]+): 135.16 Å²

SMILES: O=C(O)[C@@H]1CCCN1 [L-Proline]
collision cross section (N2) ([3]; [M+H]+): 125.1 Å²
collision cross section (N2) ([1]; [M+H]+): 126.22 Å²
collision cross section (N2) ([4]; [M+H]+): 126.48 Å²

SMILES: CCCCC/C=C\C/C=C\CCCCCCCC(=O)O [Linoleic acid]
collision cross section (N2) ([3]; [M-H]-): 173.24 Å²
collision cross section (N2) ([1]; [M-H]-): 175.69 Å²

SMILES: CC/C=C\C/C=C\C/C=C\CCCCCCCC(=O)O [Linolenic acid]
collision cross section (N2) ([1]; [M-H]-): 174.88 Å²

SMILES: CCCCC/C=C\C/C=C\CCCCCCCCCC(=O)O[C@H](COC(=O)CCCCCCCCCCC)COP(=O)([O-])OCC[N+](C)(C)C [PC(16:1/16:1)]
collision cross section (N2) ([5]; [M+H]+): 287.8 Å²
collision cross section (N2) ([4]; [M+H]+): 280.16 Å²
collision cross section (N2) ([4]; [M+Na]+): 286.9 Å²

SMILES: CCCCC/C=C\C/C=C\CCCCCCCCCCCC(=O)O[C@H](COC(=O)CCCCCCCCCCCCC)COP(=O)([O-])OCC[N+](C)(C)C [PC(18:1/18:1)]
collision cross section (N2) ([5]; [M+H]+): 302.7 Å² and 302.8 Å²
collision cross section (N2) ([4]; [M+H]+): 296.42 Å² and 297.29 Å²
collision cross section (N2) ([4]; [M+Na]+): 298.03 Å² and 300.74 Å²

SMILES: CCCCCC/C=C\CCCCCCCCCC(=O)O[C@H](COC(=O)CCCCCCC/C=C\CCCCCCCC)COP(=O)([O-])OCC[N+](C)(C)C [PC(36:2)]
collision cross section (N2) ([5]; [M+H]+): 303.1 Å²
collision cross section (N2) ([6]; [M+HCOO]-): 291 Å²
collision cross section (N2) ([6]; [M+H]+): 291.3 Å²
collision cross section (N2) ([6]; [M+Na]+): 295.1 Å²
collision cross section (N2) ([7]; [M+CH3COO]-): 293.3 Å²
collision cross section (N2) ([7]; [M+H]+): 288.5 Å²
collision cross section (N2) ([8]; [M+H]+): 288.83 Å² and 290.58 Å²
collision cross section (N2) ([8]; [M+Na]+): 293.18 Å²

SMILES: CCCCC/C=C\C/C=C\CCCCCCCC(=O)OC[C@H](COP(=O)([O-])OCC[N+](C)(C)C)OC(=O)CCCCCCCCC/C=C\CCCCCC [PC(36:3)]
collision cross section (N2) ([5]; [M+H]+): 295.8 Å²
collision cross section (N2) ([6]; [M+HCOO]-): 289.4 Å²
collision cross section (N2) ([6]; [M+H]+): 288.8 Å²
collision cross section (N2) ([6]; [M+Na]+): 291.9 Å²
collision cross section (N2) ([7]; [M+CH3COO]-): 291.6 Å²
collision cross section (N2) ([7]; [M+H]+): 285.5 Å²

SMILES: CCCCC/C=C\C/C=C\C/C=C\CCCCC(=O)O[C@H](COCCCCCCCCCCCCCCCC)COP(=O)(O)OCCN [PE(o34:3)]
collision cross section (N2) ([5]; [M-H]-): 266.5 Å²
collision cross section (N2) [9]: 278 Å²

SMILES: CCCCC/C=C\C/C=C\CCCCCCCCCCCC(=O)O[C@H](COC(=O)CCCCCCCCCCCCC)COP(=O)(O)OC[C@H](N)C(=O)O [PS(36:2)]
collision cross section (N2) ([5]; [M-H]-): 285 Å² and 286.5 Å²
collision cross section (N2) ([6]; [M+H]+): 283 Å²
collision cross section (N2) ([6]; [M+Na]+): 284.2 Å²
collision cross section (N2) ([6]; [M-H]-): 277.5 Å²
collision cross section (N2) ([7]; [M-H]-): 277.4 Å²

SMILES: CCCCC/C=C\C/C=C\C/C=C\CCCCCCC(=O)O[C@H](COC(=O)CCCCCCC/C=C\CCCCCCCC)COP(=O)(O)OC[C@H](N)C(=O)O [PS(38:4)]
collision cross section (N2) ([5]; [M-H]-): 291.4 Å²
collision cross section (N2) ([6]; [M+Na]+): 290.6 Å²
collision cross section (N2) ([7]; [M-H]-): 280.9 Å²

SMILES: CCCCC/C=C\C/C=C\CCCCCCCCCCCC(=O)O[C@H](COC(=O)CCCCCCC/C=C\C/C=C\CCCCC)COP(=O)(O)OC[C@H](N)C(=O)O [PS(40:4)]
collision cross section (N2) ([5]; [M-H]-): 297.6 Å²
collision cross section (N2) ([6]; [M+H]+): 293.2 Å²
collision cross section (N2) ([6]; [M+Na]+): 297.6 Å²
collision cross section (N2) ([6]; [M-H]-): 286.9 Å²

SMILES: CCCCCC/C=C\CCCCCCCC(=O)O [Palmitoleic acid]
collision cross section (N2) ([1]; [M-H]-): 167.95 Å²

SMILES: Cc1ncc(COP(=O)(O)O)c(C=O)c1O [Pyridoxal Phosphate]
collision cross section (N2) ([1]; [M+H]+): 151.94 Å²
collision cross section (N2) ([1]; [M+Na]+): 161.4 Å²
collision cross section (N2) ([1]; [M-H]-): 150.8 Å²

SMILES: CSCC[C@H](NC(=O)[C@H](CC(C)C)NC(=O)CNC(=O)[C@H](Cc1ccccc1)NC(=O)[C@H](Cc1ccccc1)NC(=O)[C@H](CCC(N)=O)NC(=O)[C@H](CCC(N)=O)NC(=O)[C@@H]1CCCN1C(=O)[C@H](CCCCN)NC(=O)[C@@H]1CCCN1C(=O)[C@@H](N)CCCN=C(N)N)C(N)=O [Substance P]
collision cross section (N2) ([1]; [M+2H]2+): 399.88 Å²
collision cross section (N2) ([1]; [M+3H]3+): 495.74 Å²
collision cross section (N2) ([1]; [M+H]+): 362.51 Å²

SMILES: O=c1[nH]c(=O)c2[nH]c(=O)[nH]c2[nH]1 [Uric acid]
collision cross section (N2) ([1]; [M-H]-): 126.93 Å²

The next lines start with the values.

collision cross section (N2) ([2]; [M+NH4]+): 302.4 Å²
collision cross section (N2) ([2]; [M+Na]+): 299.6 Å²
SMILES: CCCCCCCCCCCCCCC(=O)OC[C@H](CO[C@@H]1O[C@H](CO[C@H]2O[C@H](CO)[C@H](O)C(O)C2O)[C@H](O)C(O)C1O)OC(=O)CCCCCCCCCCCCCC (stereo partly drawn) [DGDG(30:0)]

collision cross section (N2) ([1]; [M-H]-): 186.17 Å²
SMILES: CCCCCCCCCCCCCCCCCCCC(=O)O [Eicosanoic acid]

collision cross section (N2) ([5]; [M+H]+): 227.7 Å²
collision cross section (N2) ([6]; [M+HCOO]-): 231.3 Å²
collision cross section (N2) ([7]; [M+H]+): 223.4 Å²
SMILES: CCCCCC/C=C/CCCCCCCC(=O)OC[C@@H](O)COP(=O)([O-])OCC[N+](C)(C)C [LPC(16:1)]

collision cross section (N2) ([5]; [M-H]-): 236.1 Å²
collision cross section (N2) ([6]; [M+H]+): 244.7 Å²
collision cross section (N2) ([6]; [M-H]-): 236.8 Å²
SMILES: CCCCCCCCCCCCCCCCCC(=O)OC[C@@H](O)COP(=O)(O)O[C@H]1C(O)C(O)C(O)[C@@H](O)C1O (stereo partly drawn) [LPI(18:0)]

collision cross section (N2) ([1]; [M-H]-): 201.11 Å²
SMILES: CCCCCCCCCCCCCCCCCCCCCCCC(=O)O [Lignoceric acid]

collision cross section (N2) ([5]; [M-H]-): 285.6 Å²
collision cross section (N2) ([6]; [M+NH4]+): 294.5 Å²
collision cross section (N2) ([6]; [M+Na]+): 290.2 Å²
collision cross section (N2) ([6]; [M-H]-): 278.7 Å²
collision cross section (N2) ([7]; [M+Na]+): 287.8 Å²
collision cross section (N2) ([7]; [M-H]-): 277.7 Å²
SMILES: CC/C=C\C/C=C\C/C=C\CCCCCCCC(=O)O[C@H](COC(=O)CCCCCCCCC/C=C\CCCCCCCC)COP(=O)(O)OC[C@@H](O)CO [PG(38:4)]

collision cross section (N2) ([5]; [M-H]-): 280.1 Å²
SMILES: CCCCCCCCCCCCCCCC(=O)OC[C@H](COP(=O)(O)O[C@H]1C(O)C(O)C(O)[C@@H](O)C1O)OC(=O)CCCCCCCCCCCCC (stereo partly drawn) [PI(14:0/16:0)]

collision cross section (N2) ([5]; [M-H]-): 283.6 Å²
SMILES: CCCCC/C=C\C/C=C\CCCCCCCC(=O)O[C@H](COC(=O)CCCCCCCCCCC)COP(=O)(O)O[C@H]1C(O)C(O)C(O)[C@@H](O)C1O (stereo partly drawn) [PI(14:1/16:1)]

collision cross section (N2) ([5]; [M-H]-): 284.6 Å²
SMILES: CCCCCCCC/C=C\CCCCCCCCCC(=O)O[C@H](COC(=O)CCCCCCCCCCC)COP(=O)(O)O[C@H]1C(O)C(O)C(O)[C@@H](O)C1O (stereo partly drawn) [PI(16:0/16:1)]

collision cross section (N2) ([5]; [M-H]-): 282.9 Å²
SMILES: CCCC/C=C\CCCCCCCC(=O)OC[C@H](COP(=O)(O)O[C@H]1C(O)C(O)C(O)[C@@H](O)C1O)OC(=O)CCCCCCC/C=C\CCCCCCCC (stereo partly drawn) [PI(16:1/16:1)]

collision cross section (N2) ([5]; [M-H]-): 295.9 Å² and 296.2 Å²
SMILES: CCCC/C=C\CCCCCCCC(=O)OC[C@H](COP(=O)(O)O[C@H]1C(O)C(O)C(O)[C@@H](O)C1O)OC(=O)CCCCCCCCC/C=C\CCCCCCCCCC (stereo partly drawn) [PI(18:1/18:1)]

collision cross section (N2) ([5]; [M-H]-): 302 Å² and 299.6 Å²
collision cross section (N2) ([6]; [M+H]+): 299.9 Å²
collision cross section (N2) ([6]; [M+Na]+): 298.7 Å²
collision cross section (N2) ([6]; [M-H]-): 291.8 Å²
collision cross section (N2) ([7]; [M+Na]+): 294.5 Å²
collision cross section (N2) ([7]; [M-H]-): 290.9 Å²
SMILES: CCCCC/C=C\C/C=C\C/C=C\CCCCC(=O)O[C@H](COC(=O)CCCCCCCCC/C=C\C/C=C\CCCCC)COP(=O)(O)O[C@H]1C(O)C(O)C(O)[C@@H](O)C1O (stereo partly drawn) [PI(38:5)]
